Values after ≈ are worked out from the molar mass of the structure shown. Like-named read-outs stand apart in the source and are kept apart here.
Experiments:
Helicobacter pylori = experiment: MIC against Helicobacter pylori by two fold serial dilution in growth medium; type: cell-based; conditions: for effect on the MIC of cobalt against H. pylori: weight ratio of 1:5 (cobalt:cysteine and/or methionine); for Average Selectivity Ratio: (Sum of MIC values against all bacteria except H. pylori ÷ No. of MIC values) ÷ MIC value for H. pylori; for Mean ratio pH 4:pH 7, first value: Strain 1 (Chloride: against first pH 7 value); for MIC, Strain 1 (pH 7): pH 7 (first value where two are given); for Mean ratio pH 4:pH 7, second value: Strain 2 (Chloride: Strain 1 against second pH 7 value)
Description: Solutions of metal salts were prepared by dilution of the metal salt, optionally together with the ligand, in ultra-high-purity water. The pH values were adjusted to 7 with concentrated sodium hydroxide. The solutions were γ irradiated for 20 to 30 minutes for sterilisation, and then diluted ten fold in the bacterial growth medium to be used.
A gradient of concentration was obtained by two fold serial dilutions of the medium. The concentrations of metals were analysed by inductively coupled plasma spectrometry. Each dilution was inoculated with the different bacteria to be tested, by multi-point inoculating on the agar media, or suspending in the broth media.
The presence or absence of bacterial growth was reported within the concentration gradient and the minimum concentration of complex in the medium that inhibits totally the bacterial growth (MIC) was determined. The growth on an agar plate was detected by the presence of colonies, and by turbidity in the broth media. The bacteria were identified by the Gram morphology test. Helicobacter pylori growth was also confirmed by biochemical test on the catalase, urease and oxidase activity.

Staphylococcus aureus = experiment: MIC against Staphylococcus aureus; type: cell-based; conditions: Table 4
Enterococcus faecalis = experiment: MIC against Enterococcus faecalis; type: cell-based; conditions: Table 4
Pseudomonas aeruginosa [1] = experiment: MIC against Pseudomonas aeruginosa; type: cell-based; conditions: Table 4
Klebsiella = experiment: MIC against Klebsiella; type: cell-based; conditions: Table 4
Echerichia coli = experiment: MIC against Echerichia coli; type: cell-based; conditions: Table 4
E. coli = conditions: extrapolated from survival rates; protein broth then phosphate-buffered saline; Zhao et al 1998; cited from earlier work
Pseudomonas aeruginosa [2] = conditions: extrapolated from survival rates; protein broth then phosphate-buffered saline; Zhao et al 1998; cited from earlier work
[3] = test system: Staphylococcus (aureus or Oxford Staph); conditions: extrapolated from survival rates; protein broth then phosphate-buffered saline; Zhao et al 1998; cited from earlier work
H. pylori [4] = conditions: H. pylori; cited from earlier work
H. pylori [5] = conditions: cited from earlier work
[6] = STH broth, NCTC 11637 and seven clinical isolates
[7] = pH 4-7: pH of the media changes during the experiment from acidic start

Compound: CSCC[C@H](N)C(=O)O [methionine, reference compound]
- effect on the MIC of cobalt against H. pylori (Helicobacter pylori): not to affect the MIC of cobalt against H. pylori

Compound: [Cl][Fe]([Cl])[Cl] [Fe^3+]
- Average Selectivity Ratio (Helicobacter pylori): 1.00
- MIC (Helicobacter pylori; [6]): >32 µg/mL
- MIC, H. pylori (Helicobacter pylori; Table 4): >32/>32
- MIC, H. pylori, first of two values (Helicobacter pylori; Table 4): >32/>32
- MIC, Staphylococcus (aureus or Oxford Staph) (Staphylococcus aureus): > 32 µg/mL
- MIC, Ent faecalis (Enterococcus faecalis): > 32 µg/mL
- MIC, Pseudomonas aeruginosa (Pseudomonas aeruginosa [1]): > 32 µg/mL
- MIC, Klebsiella (Klebsiella): > 32 µg/mL
- MIC, E. coli (Echerichia coli): > 32 µg/mL

Compound: [OH][Co][OH] [Co hydroxide]
- Mean ratio pH 4:pH 7, first value (Helicobacter pylori): 0.058
- MIC, Strain 1 (pH 4) (Helicobacter pylori): 0.11
- MIC, Strain 1 (pH 7) (Helicobacter pylori): 1.9
- Mean ratio pH 4:pH 7, second value (Helicobacter pylori): 0.029
- MIC, Strain 2 (pH 4) (Helicobacter pylori): 0.11
- MIC, Strain 2 (pH 7) (Helicobacter pylori; pH 7): 3.80
- MIC, pH 4-7 (Helicobacter pylori; [7]): 0.125 mg/l
- MIC, pH 7 (Helicobacter pylori; pH 7): 2-4 mg/l

Compound: O=C([O-])[O-].[Co+2] [Co carbonate]
- Mean ratio pH 4:pH 7, first value (Helicobacter pylori): 0.048
- MIC, Strain 1 (pH 4) (Helicobacter pylori): 0.09
- MIC, Strain 1 (pH 7) (Helicobacter pylori): 1.09
- Mean ratio pH 4:pH 7, second value (Helicobacter pylori): 0.018
- MIC, Strain 2 (pH 4) (Helicobacter pylori): <0.02
- MIC, Strain 2 (pH 7) (Helicobacter pylori; pH 7): 1.09
- MIC, pH 4-7 (Helicobacter pylori; [7]): 0.03-0.125 mg/l
- MIC, pH 7 (Helicobacter pylori; pH 7): 0.125-1 mg/l

Compound: O=[N+]([O-])[O-].O=[N+]([O-])[O-].[Co+2] [Co nitrate]
- Mean ratio pH 4:pH 7, first value (Helicobacter pylori): 0.07
- MIC, Strain 1 (pH 4) (Helicobacter pylori): 0.05
- MIC, Strain 1 (pH 7) (Helicobacter pylori): 0.69
- Mean ratio pH 4:pH 7, second value (Helicobacter pylori): 0.08
- MIC, Strain 2 (pH 4) (Helicobacter pylori): 0.055
- MIC, Strain 2 (pH 7) (Helicobacter pylori; pH 7): >0.69
- MIC, pH 4-7 (Helicobacter pylori; [7]): 0.06 mg/l
- MIC, pH 7 (Helicobacter pylori; pH 7): 1 mg/l

Compound: O=[N+]([O-])[O-].O=[N+]([O-])[O-].O=[N+]([O-])[O-].[Cr+3] [Cr^2+ (chromium nitrate), chromium nitrate, reference compound]
- MIC (Helicobacter pylori; [6]): >32 µg/mL

Compound: [O]=[Mo](=[O])=[O] [Mo^6+ (molybdenum oxide), molybdenum oxide, reference compound]
- MIC (Helicobacter pylori; [6]): >32 µg/mL

Compound: [Cl-].[Cl-].[Zn+2] [Zn^2+]
- Average Selectivity Ratio (Helicobacter pylori): 0.76
- MIC (Helicobacter pylori; [6]): >32 µg/mL
- MIC, H. pylori (Helicobacter pylori; Table 4): >32/32
- MIC, H. pylori, first of two values (Helicobacter pylori; Table 4): >32/32
- MIC, Staphylococcus (aureus or Oxford Staph) (Staphylococcus aureus): > 32 µg/mL
- MIC, Ent faecalis (Enterococcus faecalis): > 32 µg/mL
- MIC, Pseudomonas aeruginosa (Pseudomonas aeruginosa [1]): > 32 µg/mL
- MIC, Klebsiella (Klebsiella): > 32 µg/mL
- MIC, E. coli (Echerichia coli): > 32 µg/mL
- MIC, E. coli (footnote a) (E. coli): 17^a
- MIC, Pseudomonas aeruginosa (footnote a) (Pseudomonas aeruginosa [2]): 1.7^a
- MIC, Staphylococcus (aureus or Oxford Staph) (footnote a) [3]: 17^a

Compound: O=C(O)CN(CCN(CC(=O)O)CC(=O)O)CC(=O)O [EDTA, reference compound]
- effect of added ligand on the MIC / action of cobalt against H. pylori (Helicobacter pylori; ligand added to cobalt): inhibited the action of cobalt against H. pylori

Compound: [Cl][Mn][Cl] [Mn^2+]
- Average Selectivity Ratio (Helicobacter pylori): 1.00
- MIC (Helicobacter pylori; [6]): >32 µg/mL
- MIC, H. pylori (Helicobacter pylori; Table 4): >32/>32
- MIC, H. pylori, first of two values (Helicobacter pylori; Table 4): >32/>32
- MIC, Staphylococcus (aureus or Oxford Staph) (Staphylococcus aureus): > 32 µg/mL
- MIC, Ent faecalis (Enterococcus faecalis): > 32 µg/mL
- MIC, Pseudomonas aeruginosa (Pseudomonas aeruginosa [1]): > 32 µg/mL
- MIC, Klebsiella (Klebsiella): > 32 µg/mL
- MIC, E. coli (Echerichia coli): > 32 µg/mL

Compound: [Ni+2] [Ni^2+]
- Average Selectivity Ratio (Helicobacter pylori): 0.89
- MIC (Helicobacter pylori; [6]): >32 µg/mL
- MIC, H. pylori (Helicobacter pylori; Table 4): >32/>32
- MIC, H. pylori, first of two values (Helicobacter pylori; Table 4): >32/>32
- MIC, Staphylococcus (aureus or Oxford Staph) (Staphylococcus aureus): > 32 µg/mL
- MIC, Ent faecalis (Enterococcus faecalis): > 32 µg/mL
- MIC, Pseudomonas aeruginosa (Pseudomonas aeruginosa [1]): > 32 µg/mL
- MIC, Klebsiella (Klebsiella): > 32 µg/mL
- MIC, E. coli (Echerichia coli): > 32 µg/mL
- MIC, E. coli (footnote a) (E. coli): 22.89^a
- MIC, Pseudomonas aeruginosa (footnote a) (Pseudomonas aeruginosa [2]): 22.89^a
- MIC, Staphylococcus (aureus or Oxford Staph) (footnote a) [3]: 22.89^a

Compound: CC[C@H]1OC(=O)[C@H](C)[C@@H](O[C@H]2C[C@@](C)(OC)[C@@H](O)[C@H](C)O2)[C@H](C)[C@@H](O[C@@H]2O[C@H](C)C[C@H](N(C)C)[C@H]2O)[C@](C)(OC)C[C@@H](C)C(=O)[C@H](C)[C@@H](O)[C@]1(C)O [clarithromycin]
- MIC50 (H. pylori [4]): 0.03 µg/mL (≈ 0.0401 µM)
- eradication of infections (H. pylori [5]; in combination with metronidazole): about 70%
- eradication of infections (H. pylori [5]; monotherapy): about 34%
- eradication of infections (H. pylori [5]; triple therapy with a PPI and either metronidazole or amoxycillin): 85-95%

Compound: Vitamin B12 [reference compound]
- activity against H. pylori (Helicobacter pylori; strongly bound cobalt complex): greatly reduced activity

Compound: O=S(=O)([O-])[O-].[O]=[V+2] [V^4+ (vanadyl sulfate), vanadyl sulfate, reference compound]
- MIC (Helicobacter pylori; [6]): >32 µg/mL

Compound: O=[N+]([O-])[O-].O=[N+]([O-])[O-].O=[N+]([O-])[O-].[Bi+3] [Bi^3+ (bismuth nitrate), bismuth nitrate, reference compound]
- MIC (Helicobacter pylori; [6]): 4 to 8 µg/mL
- action against H. pylori (in words) (Helicobacter pylori; Table 2 metals compared with cobalt (II)): active, but only at much higher levels than cobalt (II)

Compound: [Cl][Cu][Cl] [Cu^2+]
- Average Selectivity Ratio (Helicobacter pylori): 1.02
- MIC (Helicobacter pylori; [6]): 16 to 32 µg/mL
- MIC, H. pylori (Helicobacter pylori; Table 4): 32
- MIC, H. pylori, first of two values (Helicobacter pylori; Table 4): 16
- MIC, H. pylori (Helicobacter pylori; Table 4, main value): 24 µg/mL
- MIC, Staphylococcus (aureus or Oxford Staph) (Staphylococcus aureus): > 32 µg/mL
- MIC, Ent faecalis (Enterococcus faecalis): > 32 µg/mL
- MIC, Pseudomonas aeruginosa (Pseudomonas aeruginosa [1]): > 32 µg/mL
- MIC, Klebsiella (Klebsiella): > 32 µg/mL
- MIC, E. coli (Echerichia coli): > 32 µg/mL
- MIC, E. coli (footnote a) (E. coli): 17.15^a
- MIC, Pseudomonas aeruginosa (footnote a) (Pseudomonas aeruginosa [2]): 1.75^a
- MIC, Staphylococcus (aureus or Oxford Staph) (footnote a) [3]: 17.15^a

Compound: N[C@@H](CS)C(=O)O [cysteine, reference compound]
- effect on the MIC of cobalt against H. pylori (Helicobacter pylori): not to affect the MIC of cobalt against H. pylori

Compound: Br [Co bromide]
- MIC (Helicobacter pylori; Helicobacter pylori, pH 7, read-out: MIC, pH 7): 1 to 4 µg/mL
- MIC (Helicobacter pylori; Helicobacter pylori, pH 4-7: pH of the media changes during the experiment from acidic start, read-out: MIC, pH 4-7): 0.06 to 0.125 µg/mL
- Mean ratio pH 4:pH 7, first value (Helicobacter pylori): 0.036
- MIC, Strain 1 (pH 4) (Helicobacter pylori): <0.04
- MIC, Strain 1 (pH 7) (Helicobacter pylori): 1.12
- Mean ratio pH 4:pH 7, second value (Helicobacter pylori): 0.02
- MIC, Strain 2 (pH 4) (Helicobacter pylori): 0.09
- MIC, Strain 2 (pH 7) (Helicobacter pylori; pH 7): 4.49

Compound: O=P([O-])([O-])[O-].O=P([O-])([O-])[O-].[Co+2].[Co+2].[Co+2] [Co phosphate]
- MIC, pH 4-7 (Helicobacter pylori; [7]): 4 mg/l
- MIC, pH 7 (Helicobacter pylori; pH 7): 0.8 mg/l

Compound: CC(=O)[O-].CC(=O)[O-].[Co+2] [Co acetate]
- Mean ratio pH 4:pH 7, first value (Helicobacter pylori): 0.054
- MIC, Strain 1 (pH 4) (Helicobacter pylori): 0.11
- MIC, Strain 1 (pH 7) (Helicobacter pylori): 2.03
- Mean ratio pH 4:pH 7, second value (Helicobacter pylori): 0.11
- MIC, Strain 2 (pH 4) (Helicobacter pylori): 0.11
- MIC, Strain 2 (pH 7) (Helicobacter pylori; pH 7): 1.01
- MIC, pH 4-7 (Helicobacter pylori; [7]): 0.125 mg/l
- MIC, pH 7 (Helicobacter pylori; pH 7): 0.5-2 mg/l

From patent US7811609B2, “Use of metal compounds to treat gastrointestinal infections” (priority 2000, dated 2010)
